Test [1] is described as follows: Inhibition of N-terminal His6-tagged Trypanosoma brucei CTPS assessed as NH3-dependent CTP formation by continuous spectrophotometric assay.
Test [2] concerns Escherichia coli. The experiment in a line: Activation of Escherichia coli CTPS assessed as Gln-dependent CTP formation at < 0.15 mM by continuous spectrophotometric assay.
Test [3] concerns Escherichia coli. The experiment in a line: Inhibition of Escherichia coli CTPS assessed as Gln-dependent CTP formation at > 0.15 mM by continuous spectrophotometric assay.
The subject of test [4] is Trypanosoma brucei. The experiment in a line: Activation of N-terminal His6-tagged Trypanosoma brucei CTPS assessed as Gln-dependent CTP formation by continuous spectrophotometric assay.
Test [5] has as its system Trypanosoma brucei. In words: Inhibition of N-terminal His6-tagged Trypanosoma brucei CTPS assessed as Gln-dependent CTP formation at by continuous spectrophotometric assay.
Test [6] concerns Trypanosoma brucei. In words: Activation of N-terminal His6-tagged Trypanosoma brucei CTPS assessed as Gln-dependent CTP formation at <0.2 mM by continuous spectrophotometric assay.
Test [7] relates to Trypanosoma brucei. The experiment in a line: Inhibition of N-terminal His6-tagged Trypanosoma brucei CTPS assessed as Gln-dependent CTP formation at > 0.2 mM by continuous spectrophotometric assay.
The nature of test [8]: Activity of Escherichia coli CTPS assessed as conversion of UTP to CTP at pH 7.3 by continuous spectrophotometric assay.
Test [9] can be described thus: Activity of N-terminal His6-tagged Trypanosoma brucei CTPS assessed as conversion of UTP to CTP at pH 7.3 by continuous spectrophotometric assay.
Test [10] concerns Trypanosoma brucei. As to conditions: 5.67 mM.
Description: Inhibition of N-terminal His6-tagged Trypanosoma brucei CTPS assessed as conversion of UTP to CTP at 5.67 mM by continuous spectrophotometric assay
Test [11] has as its system Trypanosoma brucei. As to conditions: 494.32 mM.
Description: Inhibition of N-terminal His6-tagged Trypanosoma brucei CTPS assessed as conversion of UTP to CTP at 494.32 mM at pH 7.3 by continuous spectrophotometric assay
The test system of test [12] is Escherichia coli.
The subject of test [13] is Trypanosoma brucei.
Description: Ratio of Kcat to Km for N-terminal His6-tagged Trypanosoma brucei CTPS assessed as conversion of UTP to CTP by continuous spectrophotometric assay
Test [14] deals with Escherichia coli. This is another data set of the same source.
Description: Ratio of Kcat to Km for Escherichia coli CTPS assessed as conversion of UTP to CTP by continuous spectrophotometric assay
Test [15] concerns Trypanosoma brucei. The source holds these as a separate data set.

Each structure is given as a SMILES string. Active and inactive are the calls of the source. The rule behind the calls is not given here.

In general, IC50 refers to the concentration needed to halve the response being measured. As usually defined, the kcat is the number of substrate molecules converted per active site and unit of time at saturation. By Ki is commonly meant the equilibrium dissociation constant of an inhibitor or competing ligand from its target.

On to `Nc1nc2c(ncn2[C@@H]2O[C@H](CO)[C@@H](O)[C@H]2O)c(=O)[nH]1` [GUANOSINE], for which the IC50 in test [1] was determined as 380 µM.

Turning to `Nc1nc(=O)c2ncn([C@@H]3O[C@H](COP(=O)(O)OP(=O)(O)OP(=O)(O)O)[C@@H](O)C3O)c2[nH]1` (single isomer, unassigned) [GTP], the kcat in test [2] came out at 10.6 s⁻¹. In addition, the inhibition result in [3], in test [5] and in [7] was “Active” each time. For the same compound, the KA in test [4] was determined as 57 µM. In test [4], the Kact amounted to 0.87 s⁻¹. The IC50 in test [1] was found to be 460 µM. Further, the Ki in test [1] was determined as 272 µM. Further, the outcome in test [6] was Active.

For `N` [AMMONIA SOLUTION, STRONG], the results for the inhibition constant Ki in [8] and in test [9] were 1400 µM and 5700 µM, respectively. Also, the inhibition entry in test [10] and in [11] was “Active” in each case. In addition, the Ks in test [12] amounted to 1.1 mM; in test [15], 2.2 mM. Also, the kcat turned out to be 4.4 s⁻¹ in test [12] and 1.6 s⁻¹ in [15]. The kcat/Km in [13] is 727 M⁻¹ s⁻¹; in [14], 4 ×10³ /M/s.

As for `Oc1nc(O)c2nc(O)[nH]c2n1` [URIC ACID], the IC50 in test [1] worked out at 100 µM.

`Cn1c(=O)c2c(ncn2C)n(C)c1=O` [CAFFEINE]: the IC50 in [1] came out at 480 µM.

(Values after ChEMBL document CHEMBL1817579, “Activation and inhibition of CTP synthase from Trypanosoma brucei, the causative agent of African sleeping sickness” (Bioorg Med Chem Lett, 2011).)
